US20250127787A1, “METHODS FOR TREATING PERIPHERAL NEUROPATHY” (University of Pittsburgh - Of the Commonwealth System of …, priority 2021, published 2025)
Entries after “also recorded” stand apart in the source; their conditions may differ.

What was measured:
Type in all cases: in vivo
Conditions in all cases: 8-AG 5 mg/kg/day in drinking water
protein carbonylation = test: Protein carbonylation in CYP-CIPN rat hindpaw epidermis
Description: (§1) Animals. This study employed female Harlan Sprague Dawley (HSD) rats (3-4 mo; Envigo, Indianapolis, IN) and were divided into the following groups: 1) Control, 2) Cyclophosphamide (CYP, 75 mg/kg i.p. in saline vehicle; administered on days 0, 3 and 6); 3) 8-aminoguanine (8-AG; 5 mg/kg/day in drinking water; beginning 2 weeks prior to CYP and continuing until sacrifice (day 8)). The dose of 8-AG is based on our preliminary and published experiments. […] The investigation conforms to the Guide for the Care and Use of Laboratory Animals published by the US National Institutes of Health (NIH Publication No. 85-23, revised 1996). […]
(§2) Western immunoblotting: Following the testing paradigms, rats were deeply anesthetized and tissues (e.g., epidermis, peripheral sciatic nerves, spinal cord segments (L3-L5) and dorsal root ganglia (L3-L5) were removed, and a portion of each preparation was homogenized using Lysing Matrix D in a FASTPREP® 24 instrument (MP Biomedicals, Solon, OH) in HBSS [5 mM KCl, 0.3 mM KH2PO4, 138 mM NaCl, 4 mM NaHO3, 0.3 mM Na2HCO3, 0.3 mM Na2HPO4, 5.6 mM glucose and 10 mM Hepes, pH 7.4 containing complete protease inhibitor cocktail (1 tablet/10 ml, Roche, Indianapolis, IN)] and phosphatase inhibitor cocktail (Sigma, 1:100). […] The protein concentrations of the supernatants were determined using the Pierce BCA protein assay (Thermo Scientific, Rockford, IL). […]

inosine and guanosine = test: Purine levels (inosine, guanosine) in CYP-CIPN rat epidermis (footpad)
Description: Animals. This study employed female Harlan Sprague Dawley (HSD) rats (3-4 mo; Envigo, Indianapolis, IN) and were divided into the following groups: 1) Control, 2) Cyclophosphamide (CYP, 75 mg/kg i.p. in saline vehicle; administered on days 0, 3 and 6); 3) 8-aminoguanine (8-AG; 5 mg/kg/day in drinking water; beginning 2 weeks prior to CYP and continuing until sacrifice (day 8)). The dose of 8-AG is based on our preliminary and published experiments. […] The investigation conforms to the Guide for the Care and Use of Laboratory Animals published by the US National Institutes of Health (NIH Publication No. 85-23, revised 1996). In addition, all tissues (dorsal root ganglion, spinal cord, peripheral nerves and hindpaw epidermis) were removed from isoflurane anesthetized rats and the tissue was used for various experimental approaches as described below. At the end of tissue removal, animals were sacrificed by thoracotomy.

Mst3b = Mst3b expression in CYP-CIPN rat epidermis, Western immunoblotting
Description: as §1, §2

Nc1nc2[nH]c(N)nc2c(=O)[nH]1 [8-AG, 8-Aminoguanine]
effect on CYP-induced protein carbonylation (protein carbonylation): completely prevents; also recorded: restored values to that of a control state | effect on CYP-induced decrease in guanosine levels (inosine and guanosine): normalizes; also recorded: completely restored | effect on CYP-induced decrease in inosine levels (inosine and guanosine): normalizes; also recorded: completely restored | effect on CYP-induced decrease in Mst3b expression (Mst3b): completely restored; also recorded: completely prevented; also recorded: effective in restoring
